From article PMC10464304, “Refined read‐out: The hUHRF1 Tandem‐Tudor domain prefers binding to histone H3 tails containing K4me1 in the context of H3K9me2/3” (Protein Science : A Publication of the Protein Society, 2023)

Target: T1, hUHRF1‐TTD WT (GST‐fused, residues 126–280) (Homo sapiens, UniProt Q96T88)
T1 construct: on previously defined borders (residues 126–280; Rothbart et al., [2012]) was N‐terminally fused to GST; made in house; host or cells: Escherichia coli
T1 sequence (Q96T88 126-280): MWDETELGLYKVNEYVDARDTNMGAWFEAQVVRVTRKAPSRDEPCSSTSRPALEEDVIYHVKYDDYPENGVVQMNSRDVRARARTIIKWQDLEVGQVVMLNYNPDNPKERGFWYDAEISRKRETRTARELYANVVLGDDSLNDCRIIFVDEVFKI
Assay: Equilibrium peptide binding titration by fluorescence anisotropy (FA), TTD WT
Protocol: The Tandem Tudor domain of hUHRF1 (UNIPROT Q96T88) on previously defined borders (residues 126–280; Rothbart et al., [2012]) was N‐terminally fused to GST. Mutations were introduced using an updated rolling circle protocol and validated by Sanger sequencing. Proteins were overexpressed in Escherichia coli by induction with 1 mM isopropyl‐β‐D‐thiogalactopyronoside (IPTG) when OD600 reached 0.6–0.8, and the culture was continued overnight at 20°C. The cells were harvested by centrifugation for 30 min, at 4°C and 3781 g. For purification, each pellet was resuspended in 30 mL sonication buffer (500 mM KCl, 20 mM HEPES pH 7.5, 10% v/v glycerol, and 0.2 mM dithiothreitol [DTT]) and sonicated for cell lysis (Q120 Sonicator, Active Motif). After centrifugation for 1 h at 4°C and 45,850 g, the soluble protein was purified using Glutathione Agarose 4B gravitational columns and dialyzed against dialysis buffer (200 mM KCl, 20 mM HEPES, 10% v/v glycerol, pH 7.5, and 0.2 mM DTT). […] Protein concentration was determined spectroscopically by A 280 and purity was verified on SDS‐PAGE.
Equilibrium peptide binding experiments were performed on a Jasco FP‐8300 spectrofluorometer with an automatic polarizer FDP‐837. […] Acquisitions were performed at 23°C with excitation at 493 nm and emission measured at 520 nm, slit width set to 5 nm for both, and multiple accumulations. […]

ARTK(me1)QTARK(me2)STGGKAPRKQ-K(FITC) [H3K4me1‐K9me2, FITC‐labeled histone H3 (1-19) peptide with K4me1 and K9me2]
preference for the double‐modified peptide (H3K4me1‐K9me2 versus H3K9me2 peptide, FA titrations with GST‐TTD WT (Figure S3a)): > 2 fold

ARTK(me1)QTARKSTGGKAPR-K(FITC) [H3K4me1, FITC‐labeled histone H3 (1-17) peptide with K4me1]
binding of TTD WT to the peptide (in words) (Supplemental Figure 3B, control data, FA titration): weakly
